target: human IRAK4 (Homo sapiens (Human), UniProt Q9NWZ3); test: IRAK4 kinase inhibition, Transcreener fluorescence polarization ADP assay; type: biochemical; conditions: recombinant full-length His6-IRAK4; 125 uM ATP; 90 min; Ki computed using ATP Km 642 uM
Description: Compounds were assayed for inhibition of human IRAK4 and IRAK1 catalytic activity using recombinant enzyme produced from insect cells. Full-length IRAK4 protein, carrying an N-terminal His6-Tag, was obtained from Life Technologies (Carlsbad, Calif., USA). The IRAK1 construct was produced internally and was comprised of IRAK1 residues Arg194 to Ser712, preceded by an NH2-terminal His6 tag and the coding sequence for glutathione-S-transferase.

Sequence of human IRAK4 (Q9NWZ3 whole entry, the tested form may be a part): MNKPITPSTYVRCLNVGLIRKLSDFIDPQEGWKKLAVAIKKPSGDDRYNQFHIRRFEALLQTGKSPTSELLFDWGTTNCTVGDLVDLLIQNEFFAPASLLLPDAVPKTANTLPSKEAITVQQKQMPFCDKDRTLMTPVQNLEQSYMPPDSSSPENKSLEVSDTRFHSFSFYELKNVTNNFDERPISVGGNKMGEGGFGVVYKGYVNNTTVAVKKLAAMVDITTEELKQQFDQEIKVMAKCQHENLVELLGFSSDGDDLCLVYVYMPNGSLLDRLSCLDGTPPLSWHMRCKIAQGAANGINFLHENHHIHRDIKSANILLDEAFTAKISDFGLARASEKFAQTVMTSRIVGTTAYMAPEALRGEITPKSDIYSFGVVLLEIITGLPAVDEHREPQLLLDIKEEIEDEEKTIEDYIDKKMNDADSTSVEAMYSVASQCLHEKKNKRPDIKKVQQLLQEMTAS

Ki	SMILES
56 nM	CNC(=O)[C@H]1[C@@H]2CN(c3cc4c(cc3NC(=O)c3cnn5cccnc35)CC(C)(C)O4)C[C@@H]21 [Example 182, N-[2,2-dimethyl-6-[(1S,5R)-6-(methylcarbamoyl)-3-azabicyclo[3.1.0]hexan-3-yl]-3H-benzofuran-5-yl]pyrazolo[1,5-a]pyrimidine-3-carboxamide]
5.1 nM	CNC(=O)CC1CCN(c2cc3c(cc2NC(=O)c2cnn4cccnc24)CC(C)(C)O3)CC1 [Example 183, N-[2,2-dimethyl-6-[4-[2-(methylamino)-2-oxo-ethyl]-1-piperidyl]-3H-benzofuran-5-yl]pyrazolo[1,5-a]pyrimidine-3-carboxamide]
3.1 nM	CC1(C)Cc2cc(NC(=O)c3cnn4cccnc34)c(N3CCC(C)(C(N)=O)CC3)cc2O1 [Example 184, N-[6-(4-carbamoyl-4-methyl-1-piperidyl)-2,2-dimethyl-3H-benzofuran-5-yl]pyrazolo[1,5-a]pyrimidine-3-carboxamide]
5.8 nM	CC1(C)Cc2cc(NC(=O)c3cnn4cccnc34)c(N3CCCC(O)CC3)cc2O1 (stereo not shown) [Example 185, N-[6-(4-hydroxyazepan-1-yl)-2,2-dimethyl-3H-benzofuran-5-yl]pyrazolo[1,5-a]pyrimidine-3-carboxamide]
15 nM	CC1(C)Cc2cc(NC(=O)c3cnn4cccnc34)c(N3C[C@@H]4[C@H](C3)[C@H]4C(N)=O)cc2O1 [Example 186, N-[6-[(1S,5R)-6-carbamoyl-3-azabicyclo[3.1.0]hexan-3-yl]-2,2-dimethyl-3H-benzofuran-5-yl]pyrazolo[1,5-a]pyrimidine-3-carboxamide]
2 nM	CC1(C)Cc2cc(NC(=O)c3cnn4cccnc34)c(N3CCN(CC(N)=O)CC3)cc2O1 [Example 187, N-[6-[4-(2-amino-2-oxo-ethyl)piperazin-1-yl]-2,2-dimethyl-3H-benzofuran-5-yl]pyrazolo[1,5-a]pyrimidine-3-carboxamide]
84 nM	Cn1cncc1C1CCN(c2cc3c(cc2NC(=O)c2cnn4cccnc24)CC(C)(C)O3)C1 (stereo not shown) [Example 188, N-[2,2-dimethyl-6-[3-(3-methylimidazol-4-yl)pyrrolidin-1-yl]-3H-benzofuran-5-yl]pyrazolo[1,5-a]pyrimidine-3-carboxamide]
5.5 nM	CC1(C)Cc2cc(NC(=O)c3cnn4cccnc34)c(N3Cc4cccnc4C3)cc2O1 [Example 189, N-[6-(5,7-dihydropyrrolo[3,4-b]pyridin-6-yl)-2,2-dimethyl-3H-benzofuran-5-yl]pyrazolo[1,5-a]pyrimidine-3-carboxamide]
630 nM	CC1(C)Cc2cc(NC(=O)c3cnn4cccnc34)c(N3CCCC(c4ccn[nH]4)C3)cc2O1 (stereo not shown) [Example 190, N-[2,2-dimethyl-6-[3-(1H-pyrazol-5-yl)-1-piperidyl]-3H-benzofuran-5-yl]pyrazolo[1,5-a]pyrimidine-3-carboxamide]
27 nM	CC1(C)Cc2cc(NC(=O)c3cnn4cccnc34)c(N3CC4COCC4C3)cc2O1 (stereo not shown) [Example 191, N-[6-(1,3,3a,4,6,6a-hexahydrofuro[3,4-c]pyrrol-5-yl)-2,2-dimethyl-3H-benzofuran-5-yl]pyrazolo[1,5-a]pyrimidine-3-carboxamide]
44 nM	CC1(C)Cc2cc(NC(=O)c3cnn4cccnc34)c(N3CCC(c4cc[nH]n4)C3)cc2O1 (stereo not shown) [Example 192, N-[2,2-dimethyl-6-[3-(1H-pyrazol-3-yl)pyrrolidin-1-yl]-3H-benzofuran-5-yl]pyrazolo[1,5-a]pyrimidine-3-carboxamide]
100 nM	CC1(C)Cc2cc(NC(=O)c3cnn4cccnc34)c(N3CC4CC3CC4(F)F)cc2O1 (stereo not shown) [Example 193, N-[6-(5,5-difluoro-2-azabicyclo[2.2.1]heptan-2-yl)-2,2-dimethyl-3H-benzofuran-5-yl]pyrazolo[1,5-a]pyrimidine-3-carboxamide]
410 nM	CC1(C)Cc2cc(NC(=O)c3cnn4cccnc34)c(N3CC4(CCCOC4)C3)cc2O1 [Example 194, N-[2,2-dimethyl-6-(6-oxa-2-azaspiro[3.5]nonan-2-yl)-3H-benzofuran-5-yl]pyrazolo[1,5-a]pyrimidine-3-carboxamide]
20 nM	CC1(C)Cc2cc(NC(=O)c3cnn4cccnc34)c(N3CCC(C(F)(F)F)C3)cc2O1 (stereo not shown) [Example 195, N-[2,2-dimethyl-6-[3-(trifluoromethyl)pyrrolidin-1-yl]-3H-benzofuran-5-yl]pyrazolo[1,5-a]pyrimidine-3-carboxamide]
13 nM	CC1(C)Cc2cc(NC(=O)c3cnn4cccnc34)c(N3CCCC(F)(F)C3)cc2O1 [Example 196, N-(6-(3,3-difluoropiperidin-1-yl)-2,2-dimethyl-2,3-dihydrobenzofuran-5-yl)pyrazolo[1,5-a]pyrimidine-3-carboxamide]
33 nM	CC1(C)Cc2cc(NC(=O)c3cnn4cccnc34)c(N3C[C@@H]4CC(F)(F)C[C@@H]4C3)cc2O1 [Example 197, N-(6-((3aR,6aS)-5,5-difluorohexahydrocyclopenta[c]pyrrol-2(1H)-yl)-2,2-dimethyl-2,3-dihydrobenzofuran-5-yl)pyrazolo[1,5-a]pyrimidine-3-carboxamide]

Ki	SMILES
140 nM	COCC1CN(c2cc3c(cc2NC(=O)c2cnn4cccnc24)CC(C)(C)O3)CCO1 (stereo not shown) [Example 198, N-(6-(2-(methoxymethyl)morpholino)-2,2-dimethyl-2,3-dihydrobenzofuran-5-yl)pyrazolo[1,5-a]pyrimidine-3-carboxamide]
170 nM	CC1(C)Cc2cc(NC(=O)c3cnn4cccnc34)c(N3CC4CC(F)(F)C4C3)cc2O1 (stereo not shown) [Example 199, N-(6-(6,6-difluoro-3-azabicyclo[3.2.0]heptan-3-yl)-2,2-dimethyl-2,3-dihydrobenzofuran-5-yl)pyrazolo[1,5-a]pyrimidine-3-carboxamide]
22 nM	CC1(C)Cc2cc(NC(=O)c3cnn4cccnc34)c(N3C[C@H]4CCC(F)(F)[C@H]4C3)cc2O1 [Example 200, N-(6-((3aR,6aS)-4,4-difluorohexahydrocyclopenta[c]pyrrol-2(1H)-yl)-2,2-dimethyl-2,3-dihydrobenzofuran-5-yl)pyrazolo[1,5-a]pyrimidine-3-carboxamide]
28 nM	CC1(C)Cc2cc(NC(=O)c3cnn4cccnc34)c(N3CCCC3CO)cc2O1 (stereo not shown) [Example 201, N-(6-(2-(hydroxymethyl)pyrrolidin-1-yl)-2,2-dimethyl-2,3-dihydrobenzofuran-5-yl)pyrazolo[1,5-a]pyrimidine-3-carboxamide]
690 nM	CC1(C)Cc2cc(NC(=O)c3cnn4cccnc34)c(N3CCCC(c4ncc[nH]4)C3)cc2O1 (stereo not shown) [Example 202, N-(6-(3-(1H-imidazol-2-yl)piperidin-1-yl)-2,2-dimethyl-2,3-dihydrobenzofuran-5-yl)pyrazolo[1,5-a]pyrimidine-3-carboxamide]
15 nM	CC1(C)Cc2cc(NC(=O)c3cnn4cccnc34)c(N3C[C@@H](F)[C@@H](F)C3)cc2O1 [Example 203, N-(6-((3R,4S)-3,4-difluoropyrrolidin-1-yl)-2,2-dimethyl-2,3-dihydrobenzofuran-5-yl)pyrazolo[1,5-a]pyrimidine-3-carboxamide]
730 nM	CC1(C)Cc2cc(NC(=O)c3cnn4cccnc34)c(N3CC4(CCC4(F)F)C3)cc2O1 [Example 204, N-(6-(5,5-difluoro-2-azaspiro[3.3]heptan-2-yl)-2,2-dimethyl-2,3-dihydrobenzofuran-5-yl)pyrazolo[1,5-a]pyrimidine-3-carboxamide]
86 nM	CN(Cc1ccc(C#N)cc1)c1cc2c(cc1NC(=O)c1cnn3cccnc13)CC(C)(C)O2 [Example 205, N-(6-((4-cyanobenzyl)(methyl)amino)-2,2-dimethyl-2,3-dihydrobenzofuran-5-yl)pyrazolo[1,5-a]pyrimidine-3-carboxamide]
3.4 nM	CC1(C)Cc2cc(NC(=O)c3cnn4cccnc34)c(N3CCC(n4ccnc4)CC3)cc2O1 [Example 206, N-(6-(4-(1H-imidazol-1-yl)piperidin-1-yl)-2,2-dimethyl-2,3-dihydrobenzofuran-5-yl)pyrazolo[1,5-a]pyrimidine-3-carboxamide]
17 nM	CC1(C)Cc2cc(NC(=O)c3cnn4cccnc34)c(N3CCCC(F)(F)CC3)cc2O1 [Example 207, N-(6-(4,4-difluoroazepan-1-yl)-2,2-dimethyl-2,3-dihydrobenzofuran-5-yl)pyrazolo[1,5-a]pyrimidine-3-carboxamide]
15 nM	CC1(C)Cc2cc(NC(=O)c3cnn4cccnc34)c(N3C[C@@H]4[C@H](C3)[C@H]4C(N)=O)cc2O1 [Example 208, N-(6-((1R,5S,6r)-6-carbamoyl-3-azabicyclo[3.1.0]hexan-3-yl)-2,2-dimethyl-2,3-dihydrobenzofuran-5-yl)pyrazolo[1,5-a]pyrimidine-3-carboxamide]
56 nM	CNC(=O)[C@H]1[C@@H]2CN(c3cc4c(cc3NC(=O)c3cnn5cccnc35)CC(C)(C)O4)C[C@@H]21 [Example 212, N-(2,2-dimethyl-6-((1R,5S,6r)-6-(methylcarbamoyl)-3-azabicyclo[3.1.0]hexan-3-yl)-2,3-dihydrobenzofuran-5-yl)pyrazolo[1,5-a]pyrimidine-3-carboxamide]
3 nM	CC1(C)Cc2cc(NC(=O)c3cnn4cccnc34)c(N3CCC4(CC3)CNC(=O)C4)cc2O1 [Example 213, N-(2,2-dimethyl-6-(3-oxo-2,8-diazaspiro[4.5]decan-8-yl)-2,3-dihydrobenzofuran-5-yl)pyrazolo[1,5-a]pyrimidine-3-]
12 nM	CC1(C)Cc2cc(NC(=O)c3cnn4cccnc34)c(N3CCCC3)cc2O1 [Example 214, N-(2,2-dimethyl-6-(pyrrolidin-1-yl)-2,3-dihydrobenzofuran-5-yl)pyrazolo[1,5-a]pyrimidine-3-carboxamide]
5.4 nM	CC1(C)Cc2cc(NC(=O)c3cnn4cccnc34)c(N3CC4C(CO)C4C3)cc2O1 (stereo not shown) [Example 215, N-(6-(6-(hydroxymethyl)-3-azabicyclo[3.1.0]hexan-3-yl)-2,2-azabicyclo[3.1.0]dimethyl-2,3-dihydrobenzofuran-5-yl)pyrazolo[1,5-a]pyrimidine-3-carboxamide]

— patent US10988478B1, “Pyrazolo[1,5a]pyrimidine derivatives as IRAK4 modulators” (Genentech, Inc., priority 2015, dated 2021)
